Values joined by “and” are separate entries in the source; they are usually repeats but may differ in a detail not shown here. Equal entries are not always repeated. Where two headings read alike, the source gives them in different places.
Experiments:
canine TRPM8 = biological target: T1, canine TRPM8 (Canis lupus familiaris, UniProt Q1A7N1); test: In Vitro Canine TRPM8 Functional Assay (icilin-induced intracellular Ca2+, FLIPR/FDSS); assay type: cell-based; settings: for IC50: icilin at approx. 80% maximal response, eight-point concentration-response; for % Inh @ 0.2 μM: 0.2 μM compound
T1 construct: expressed in transfected cells
T1 sequence (Q1A7N1 1-1104): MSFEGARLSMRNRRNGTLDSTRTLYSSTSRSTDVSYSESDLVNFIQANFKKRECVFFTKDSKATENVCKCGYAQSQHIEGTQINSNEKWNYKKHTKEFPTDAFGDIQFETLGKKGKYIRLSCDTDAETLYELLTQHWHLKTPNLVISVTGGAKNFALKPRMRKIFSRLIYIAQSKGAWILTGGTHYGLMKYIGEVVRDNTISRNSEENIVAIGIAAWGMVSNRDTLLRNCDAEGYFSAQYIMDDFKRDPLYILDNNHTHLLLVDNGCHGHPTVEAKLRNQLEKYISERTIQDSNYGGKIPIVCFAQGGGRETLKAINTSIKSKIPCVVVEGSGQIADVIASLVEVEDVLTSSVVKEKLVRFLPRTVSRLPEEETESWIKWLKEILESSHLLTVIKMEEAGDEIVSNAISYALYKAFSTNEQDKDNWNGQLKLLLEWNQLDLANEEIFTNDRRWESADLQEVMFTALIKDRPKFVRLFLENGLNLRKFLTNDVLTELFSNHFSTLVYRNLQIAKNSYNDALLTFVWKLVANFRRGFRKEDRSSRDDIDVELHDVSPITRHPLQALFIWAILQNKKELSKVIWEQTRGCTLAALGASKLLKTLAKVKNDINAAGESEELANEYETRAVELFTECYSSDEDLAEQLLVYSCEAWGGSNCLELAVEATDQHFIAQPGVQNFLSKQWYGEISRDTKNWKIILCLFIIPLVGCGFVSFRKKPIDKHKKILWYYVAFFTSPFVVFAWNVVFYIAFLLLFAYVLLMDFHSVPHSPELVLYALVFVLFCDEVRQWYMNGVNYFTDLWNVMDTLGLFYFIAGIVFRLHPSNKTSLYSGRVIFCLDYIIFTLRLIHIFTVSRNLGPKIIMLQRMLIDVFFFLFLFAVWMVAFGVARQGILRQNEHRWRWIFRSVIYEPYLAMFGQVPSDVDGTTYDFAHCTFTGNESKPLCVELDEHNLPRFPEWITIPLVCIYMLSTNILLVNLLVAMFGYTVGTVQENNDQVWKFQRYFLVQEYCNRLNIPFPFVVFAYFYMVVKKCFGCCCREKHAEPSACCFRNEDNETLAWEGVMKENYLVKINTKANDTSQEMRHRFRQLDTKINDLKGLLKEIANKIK
Procedure: The functional activity of representative compounds of the formula (I) of the present invention was quantified by measuring changes in intracellular calcium concentration using a Ca^2+-sensitive fluorescent dye. The changes in fluorescent signal were monitored by a fluorescence plate reader, either a FLIPR™ (Molecular Devices) or FDSS (Hamamatsu).
HEK293 cells stably expressing canine TRPM8 were routinely grown as monolayers in Dulbecco's minimum essential medium supplemented with 10% FBS, 2 mM L-glutamine, 100 units/mL penicillin, 100 ug/mL streptomycin and 400 μg/mL G418. Cells were maintained in 5% CO2 at 37° C. At 24 hr prior to assay, cells were seeded in black wall, clear-base poly-D-lysine coated 384-well plates (BD Biosciences, NJ, USA) at a density of 5,000 cells per well in culture medium and grown overnight in 5% CO2 at 37° C. On assay day, growth media was removed, and cells were loaded with Calcium 3 Dye (Molecular Devices) for 35 min at 37° C., under 5% CO2 and then incubated for 25 min at room temperature and atmosphere. Subsequently, cells were tested for agonist-induced increases in intracellular Ca^2+ levels using FLIPR™ or FDSS. Cells were treated with compounds of the formula (I) at varying concentrations and intracellular […] was measured for 5 min prior to the addition of icilin to all wells to achieve a final concentration that produces approximately an 80% maximal response.
Basal FI was subtracted prior to normalizing data to percent of maximal response. Curves were generated using the average of quadruplicate wells for each data point using nonlinear regression of either sigmoidal dose response or sigmoidal dose response (variable slope). Finally, the EC50 and IC50 values were calculated with the best-fit curve determined by GraphPad Prism

[1] = tested on: icilin-induced "wet-dog" shakes; test: Inhibition of icilin-induced "wet-dog" shakes in rats; assay type: in vivo; settings: male Sprague Dawley rats; 10 mg/kg p.o., 60 min pre-icilin; vehicle 10% Solutol (0.5% HPMC for 47); [1-(test compound WDS count/vehicle WDS count)]x100
Procedure: Male Sprague Dawley rats ([…], Charles River Labs, n=6-9/treatment) were used to evaluate the ability of test compounds to block icilin-induced “wet-dog” shakes (WDS). The test compound was administered in an appropriate vehicle, such as hydroxypropyl-β-cyclodextrin (HP-β-CD), methocellulose, 10% Solutol, H2O or the like, by the appropriate route (e.g., i.p. or p.o.), 30-60 min before icilin. Icilin was then administered in PEG-400 or 10% solutol/H2O, at 1.0 or 3.0 mg/kg, i.p. and spontaneous “wet-dog” shakes were counted 10-20 min post-icilin.
Representative compounds of the present invention were tested at 10 mg/kg p.o. and 60 min pre-incilin, according to the procedure as described above. Results, as listed in Table 7 below, are presented as a percent inhibition of shakes, which was calculated as [1−(test compound WDS count/vehicle WDS count)]×100.

[2] = HEK293, 0.2 μM compound, HEK293 cells stably expressing canine TRPM8, icilin activation, read-out: % Inh @ 0.2 μM
[3] = HEK293 cells stably expressing canine TRPM8, read-out: IC50
[4] = HEK293 cells stably expressing canine TRPM8, icilin activation, 0.2 µM

SMILES	inhibition at 0.2 µM (canine TRPM8; [2]) [%]	IC50 (canine TRPM8; [3])	% Inhibition of shakes [1] [%]	% Inh @ 0.2 μM (canine TRPM8; [4]) [%]	inhibition at 0.2 µM (canine TRPM8; HEK293, read-out: % Inh @ 0.2 μM) [%]	IC50 (canine TRPM8; IC50, HEK293 cells stably expressing canine TRPM8) [nM]	% Inh @ 0.2 μM (canine TRPM8; HEK293 cells stably expressing canine TRPM8, icilin activation)
Cn1c(N(Cc2ccc(F)c(Cl)c2)S(=O)(=O)c2ccccc2)nc2ccccc21 [compound 20]	101	1 nM	32.6				
Cn1c(N(Cc2ccc(OC(F)(F)F)cc2)S(=O)(=O)c2ccccc2)nc2ccccc21 [Compound #6]	101	1 nM and 2 nM	20.2	100			
Cn1c(N(Cc2ccc(F)c(C(F)(F)F)c2)S(=O)(=O)c2ccccc2)nc2ccccc21 [Compound #15, N-(4-Fluoro-3-trifluoromethyl-benzyl)-N-(1-methyl-1H-benzimidazol-2-yl)-benzenesulfonamide]	102	1 nM and 4 nM	27.7	98			
Cn1c(N(Cc2cccc(C(F)(F)F)c2)S(=O)(=O)c2ccccc2)nc2ccccc21 [Compound #12, N-(1-Methyl-1H-benzimidazol-2-yl)-N-(3-trifluoromethyl-benzyl)-benzenesulfonamide]	102	3 nM					
O=S(=O)(c1ccccc1)N(Cc1ccc(OC(F)(F)F)cc1)c1nc2ccccc2n1CC(F)(F)F [compound 59]	76	77 nM					
CCn1c(N(Cc2ccc(C(F)(F)F)cc2)S(=O)(=O)c2ccccc2)nc2cc(F)ccc21 [Compound #47, N-(1-Ethyl-5-fluoro-1H-benzimidazol-2-yl)-N-(4-trifluoromethyl-benzyl)-benzenesulfonamide]			36		100	6	
Cn1c(N(Cc2ccccc2)S(=O)(=O)c2ccccc2)nc2ccccc21 [compound 10]	101	8 nM					
Cn1c(N(Cc2ccc(C(F)(F)F)cc2)S(=O)(=O)c2ccccc2)nc2cc(F)ccc21 [compound 43]	100	4 nM					
O=S(=O)(c1ccccc1)N(Cc1ccc(C(F)(F)F)cc1)c1nc2ccccc2n1CC(F)(F)F [compound 54]	85	15 nM and 75 nM	2.4				85, 85%
CC(C)Cn1c(N(Cc2ccc(C(F)(F)F)c(F)c2)S(=O)(=O)c2ccccc2)nc2ccccc21 [compound 50]	82	37 nM					
CCCCN(c1nc2ccccc2n1Cc1ccccc1)S(=O)(=O)c1ccccc1 [Compound #1, N-(1-benzyl-1H-benzimidazol-2-yl)-N-butyl-benzenesulfonamide]	19						

— patent publication US8242157B2, “Benzimidazole derivatives useful as TRPM8 channel modulators” (Janssen Pharmaceutica NV, priority 2009, dated 2012)
